One may read the GI50 as the concentration that inhibits growth by half.

Molecules are shown by their SMILES.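 The compound was tested at five concentrations on cells cultured in 96-well plates, with a 48-hour exposure period. GI50 marks 50% less growth.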 Activity calls are given as the source filed them. Rule as the data show it: active = GI50 up to about 1.1 µM and inactive = higher.

Here are results for twelve compounds from ChEMBL document CHEMBL1201862, “PubChem BioAssay data set” (2004).

Among the test systems are XF498; KM-20L2; SNB-78; RXF 631; BT-549; HOP-18; M19-MEL; DMS-273; DMS-114.
What all share (assay): DTP human tumour cell line panel, 48 h

Consider `COc1cccc2c1C(=N)c1c(O)c3c(c(O)c1C2=O)C[C@@](O)(C(C)=O)C[C@@H]3OC1CC(N)C(O)C(C)O1` (some centres undefined), for which the concentration for 50% growth inhibition (GI50) in the experiment with XF498 was 0.202 µM (active); with KM-20L2, 0.000374 µM (active); in the experiment with SNB-78, 2 µM (inactive); in the experiment with RXF 631, 0.728 µM (active); in the experiment with BT-549, < 0.01 µM (active); in the experiment on HOP-18 it was 0.428 µM (active). Moreover, the 50% growth inhibitory concentration (GI50) is 0.486 µM (active) with M19-MEL, 0.0766 µM (active) with DMS-273 and 0.148 µM (active) with DMS-114.

As to `N#Cc1cccc(C2C(=O)c3ccc(C(=O)c4ccc5c(c4)C(=O)N(c4ccc(Oc6ccc(N7C(=O)c8ccc(C(=O)c9ccc%10c(c9)C(=O)N(c9cccc(C#N)c9)C%10=O)cc8C7=O)cc6)cc4)C5=O)cc3C2=O)c1` (centres undefined), the GI50 in the experiment with XF498, in the experiment with KM-20L2, with RXF 631, in the experiment on M19-MEL, with DMS-273 and in the experiment with DMS-114 was > 100 µM (inactive) each time.

Regarding `COC(=O)C1(C(=O)OC)CC(=O)c2cc3c(cc2-c2c(cc(OC)c(OC)c2OC)C1)OCO3`, the GI50 is > 211 µM (inactive) in the experiment on KM-20L2; > 211 µM (inactive) in the experiment with RXF 631; 0.0211 µM (active) with HOP-18; > 211 µM (inactive) in the experiment on M19-MEL; 124 µM (inactive) with DMS-273.

For the compound `CC1=Nc2ccccc2C1C(Cc1ccccc1N)c1c(C)[nH]c2ccccc12` (centres undefined), the GI50 in the experiment with XF498 is 18.5 µM (inactive); in the experiment on KM-20L2 it was 15 µM (inactive); in the experiment on RXF 631, 18.2 µM (inactive); with HOP-18, 12.4 µM (inactive); in the experiment on M19-MEL, 17.4 µM (inactive); in the experiment with DMS-114 it was 19.2 µM (inactive).

In the case of `Cc1cc(C)c(S(=O)(=O)ONC(=O)OC(C)(C)C)c(C)c1`, the GI50 in the experiment on XF498, in the experiment on SNB-78, in the experiment on RXF 631, in the experiment on M19-MEL and in the experiment with DMS-273 was > 100 µM (inactive) throughout.

For `Cc1ccc(NC(=O)/C(=N\NC(N)=S)C(C#N)c2ccccc2C)cc1C` (centres undefined), the GI50 in the experiment on XF498, in the experiment with KM-20L2, in the experiment on SNB-78, with RXF 631, in the experiment with HOP-18 and in the experiment with M19-MEL was > 100 µM (inactive) throughout. Further, the GI50 in the experiment with DMS-273 and in the experiment on DMS-114 was > 100 µM (inactive) in each case.

On to `C[Si](C)(C)/N=C1\N2C(=NC1(C(F)(F)F)C(F)(F)F)Sc1ccccc12`, for which the GI50 in the experiment on XF498, in the experiment on KM-20L2, in the experiment on SNB-78, in the experiment on RXF 631, in the experiment with HOP-18 and with M19-MEL was > 50 µM (inactive) throughout. Moreover, the GI50 with DMS-273 and in the experiment with DMS-114 was > 50 µM (inactive) in each case.

As to `CC1CC(=O)c2c(ccc3c2C(=O)c2cccc(O)c2C3=O)C1` (centres undefined), the GI50 in the experiment with XF498 is 12.6 µM (inactive); in the experiment with SNB-78, 7.29 µM (inactive); with RXF 631 it was 13.2 µM (inactive); with HOP-18, 6.58 µM (inactive); with M19-MEL, 1.41 µM (inactive); in the experiment with DMS-273 it was 4.48 µM (inactive). Moreover, in the experiment with DMS-114, the GI50 was 6.38 µM (inactive).

For the compound `O=[N+]([O-])c1ccc2nc(/C(=N/Nc3ccccc3)C(O)c3ccco3)c(O)nc2c1` (centres undefined), the GI50 is > 100 µM (inactive) in the experiment on XF498; 24.5 µM (inactive) with KM-20L2; > 100 µM (inactive) in the experiment on RXF 631; 73.5 µM (inactive) with M19-MEL; > 100 µM (inactive) in the experiment with DMS-273; 40 µM (inactive) with DMS-114.

In the case of `Cc1c(C#N)c(=O)[nH]c(=O)n1CCN1CCN(C(=O)NCCCCCCNC(=O)N2CCN(CCn3c(C)c(C#N)c(=O)[nH]c3=O)CC2)CC1`, the GI50 in the experiment with XF498, in the experiment on KM-20L2, in the experiment on SNB-78, in the experiment with HOP-18, in the experiment with M19-MEL and in the experiment on DMS-273 was > 100 µM (inactive) in each case. For the same compound, in the experiment on DMS-114, the GI50 was > 100 µM (inactive).

Consider `CCOC(=O)C(CC/C=C\c1ccccc1)N1CCC[C@H]1C(=O)OC` (some centres undefined), for which the GI50 in the experiment on XF498, in the experiment on KM-20L2, in the experiment on SNB-78, with HOP-18, in the experiment with M19-MEL and with DMS-273 was > 100 µM (inactive) in each case. The GI50 in the experiment on DMS-114 is 59.6 µM (inactive).

Regarding `NC(=O)C(=O)C1CCC2=C(Sc3ccccc3N2)C1=O` (centres undefined), the GI50 in the experiment with KM-20L2, with SNB-78, in the experiment on RXF 631, in the experiment with M19-MEL and with DMS-114 was > 100 µM (inactive) each time.
